Experimental findings from EP4696306A1, “ADENOSINE TRIPHOSPHATE SECRETION INHIBITOR, HEPATIC STELLATE CELL ACTIVATION INHIBITOR, HEPATIC STELLATE CELL DEACTIVATOR, HEPATIC FIBROSIS THERAPEUTIC AGENT, NON-ALCOHOLIC STEATOHEPATITIS THERAPEUTIC AGENT, PSORIASIS THERAPEUTIC AGENT, AND USE OF COMPOUND FOR PRODUCING ADENOSINE TRIPHOSPHATE …” (KURUME UNIVERSITY, priority 2023, dated 2024) are described below.

One assay deals with THP-1 cells. As to the kind of experiment: LPS-stimulated ATP secretion in macrophages differentiated from THP-1 cells. The class given is cell-based, human. The conditions noted are these: 10 µM; LPS 10 µg/ml 10 minutes; N = 10. As to the method:
Human acute monocytic leukemia cells (THP-1 cells (ACTT)) were cultured in accordance with Reference D. THP-1 cells were cultured in RPMI1640 medium supplemented with 10% fetal bovine serum (FBS), 100 units/ml penicillin, and 100 µg/ml streptomycin at 37°C in 5% CO2 for 1 day. Further, THP-1 cells were cultured in RPMI1640 medium supplemented with 1 µg/ml Escherichia coli scrotype 055:B5 (manufactured by Sigma-Aldrich) and 1000 units/ml mouse IFN-γ (manufactured by R&D Systems) at 37°C in 5% CO2 for 1 day, to allow differentiation into macrophages.
The differentiated macrophages were cultured in RPMI1640 medium supplemented with 1 mg/ml Escherichia coli scrotype 055:B5 (manufactured by Sigma-Aldrich) and 1000 units/ml mouse IFN-γ (manufactured by R&D Systems) at 2.5 × 10^4 cells/well in a 24-well plate at 37°C in 5% CO2 for 4 days. The medium was replaced with HBSS (manufactured by Gibco) supplemented with imeglimin or clodronate), and then LPS (10 µg/ml) was added thereto, followed by further performing incubation for 10 minutes and then collection of 200 µl of the supernatant. The supernatant was immediately treated on a heat block at 95°C for 10 minutes, and ATP in the supernatant was quantified using an ATP assay kit - Luminescence (manufactured by Dojindo) (N = 10).

The next assay has as its system LX-2 cells. As to the kind of experiment: ATP secretion from LX-2 cells. The class given is cell-based, human. The procedure:
Cells of the immortalized human hepatic stellate cell line LX-2 (manufactured by Merck) was cultured in Dulbecco's modified Eagle's medium (DMEM, 4500 mg/l Glucose, D5796, manufactured by Sigma-Aldrich) supplemented with inactivated 2% fetal bovine serum (FBS), 10 IU/ml penicillin, and 10 IU/ml streptomycin in a T25 or T75 flask at 37°C in 5% CO2.
LX-2 cells (2 × 10^6 cells per well) were seeded in a collagen-coated 6-well culture dish containing Dulbecco's modified Eagle's medium (manufactured by Sigma-Aldrich) supplemented with 10 IU/ml penicillin, […] 2% fetal bovine serum, and cultured in 5% CO2 at 37°C. After 3 days, the LX-2 cells were washed twice and preincubated in Krebs-Ringer buffer (10 mM HEPES-Tris, pH 7.4, 128 mM NaCl, 1.9 mM KCl, 1.2 mM KH2PO4, 1.3 mM MgSO4, 26 mM NaHCO3, 2.4 mM CaCl2, 10 mM glucose, 0.2% (w/v) bovine serum albumin) with or without 10 µM clodronate. The LX-2 cells were then stimulated with Krebs-Ringer buffer supplemented with ionomycin (manufactured by Cayman) regardless of whether clodronate was present or not. For the stimulation, 1 mM EGTA (manufactured by Dojindo) or 10 µM serotonin (5-HT, manufactured by Sigma-Aldrich) was used. The ATP concentration in the culture supernatant was measured in the same manner as in Example 6.

For assay [1], the system named is Thioacetamide-induced hepatic fibrosis. As to the kind of experiment: Thioacetamide-induced hepatic fibrosis in mice. It counts as in vivo. As to the method: Wild-type mice, […] (manufactured by Charles River Japan), were housed on a 12-hour light/dark cycle and fed a standard solid diet (5.4% fat, CRF-1, manufactured by Oriental Yeast Co., Ltd.) ad libitum. Thioacetamide (TAA, manufactured by FUJIFILM Wako Pure Chemical Corporation) was dissolved in physiological saline at 0.9% w/v. Eight-week-old mice were randomly assigned to three groups and continuously treated for 9 weeks according to the following scheme. At Week 9, all mice were euthanized 1 hour after administration of physiological saline or IMG.
Normal control group (N = 6): Physiological saline was intraperitoneally administered to mice three times per week. Eight hours after each administration, a vehicle was orally administered to the mice.
TAA group (N = 6): TAA(50 mg/kg, intraperitoneal) was administered to mice. Eight hours thereafter, physiological saline was orally administered to the mice. This treatment was performed three times per week for a total of 9 weeks.
TAA + IMG group (N = 6): During the first week, physiological saline was orally administered to mice. Thereafter, imeglimin (IMG) at 200 mg/kg was orally administered three times per week for 8 weeks. The administration of IMG was performed 8 hours after intraperitoneal administration of TAA (50 mg/kg).
For immunohistochemical analysis, liver samples were fixed in 4% paraformaldehyde, embedded in paraffin, and then sectioned. The sections were stained with HE or PSR. In addition, the paraffin-embedded sections were subjected to immunostaining using an α-SMA monoclonal antibody (1:500, catalog No. A5228, manufactured by Sigma-Aldrich) and an F4/80 monoclonal antibody (1:200, catalog No. MCA497GA, manufactured by AbD Serotec). The cell specimens were observed using a microscope (BZ-X700 series, manufactured by Keyence) or a confocal laser microscope (FV1000, manufactured by Olympus Corporation). The number of F4/80-positive cells was counted in four high-power fields per section. The α-SMA-positive area and the PSR-positive area were quantified using the image analysis software Fiji-ImageJ (1.54f).
A histological score was determined by a blinded investigator using the NAFLD histological scoring system of the Nonalcoholic Steatohepatitis Clinical Research Network. The total NAFLD activity score (NAS) was calculated from the total of the individual scores for steatosis ([…]), lobular inflammation (F4/80), and hepatocyte ballooning. The range of each parameter was 0 to 2 (ballooning) or 3 (the other two scores), where 0 indicates normal and 2 or 3 indicates severe. Staging of fibrosis was based on the NASH fibrosis stages, and a fibrosis stage ranging from 0 to 4 was determined according to Reference H (David E. Kleiner et al., 2005, Design and validation of a histological scoring system for nonalcoholic fatty liver disease, Hepatology, 41, 1313-1321).
All results are expressed as the mean ± standard error of the mean (S.E.M.). Statistical analyses were performed using GraphPad Prism 7.0 (GraphPad Software). Significance upon comparison between two groups was evaluated by an unpaired two-tailed Student's t-test. An unpaired two-tailed Student's t-test was used. Statistical significance among three or more groups was determined by two-way analysis of variance (ANOVA) with Tukey's or Dunnett's post hoc test. Coloc2 was used to perform image analysis, automatic thresholding, and pixel intensity correlation for statistical processing. Statistical significance was assumed when the P value was < 0.05.
In accordance with Example 15, immunostaining of α-SMA in liver sections and observation by fluorescence microscopy were performed for the normal control group, the TAA group, and the TAA + IMG group, and for a TAA + Clo group, which was treated in the same manner as the TAA + IMG group except that clodronate, instead of imeglimin, was administered at 30 mg/kg by blending it in the drinking water from 1 week after the start of TAA administration. […]

Setting [2] is: imeglimin 200 mg/kg orally three times per week for 8 weeks.

With `O=P(O)(O)C(Cl)(Cl)P(=O)(O)O` [clodronate], in the assay on THP-1 cells, the “ATP secretion upon LPS stimulation” value is reported as “strongly inhibited”. In the assay with LX-2 cells (10 µM clodronate, N = 6), the “ATP exocytosis induced by ionomycin” value was “inhibited”. The “ATP secretion promoted by 5-HT” value with LX-2 cells (10 µM serotonin, 10 µM clodronate, N = 6) was “strongly inhibited”. For the same compound, the “α-SMA-positive reaction in liver, increase by TAA” value in assay [1] (clodronate 30 mg/kg in the drinking water, immunostaining) is listed as “markedly suppressed”. The α-SMA-positive area fraction in assay [1] (clodronate 30 mg/kg in the drinking water, normal control 0.14 ± 0.01, TAA group 2.79 ± 0.33, four measurements per group) is given as 0.71 ± 0.10.
Take `C[C@H]1N=C(N(C)C)N=C(N)N1` [imeglimin]: the “ATP secretion upon LPS stimulation” value with THP-1 cells is given as “strongly inhibited”. Besides, in the assay with LX-2 cells (imeglimin, concentration not given, N = 8), the “ATP secretion from the LX-2 cells” value is recorded as “inhibited ATP secretion”. In assay [1] (imeglimin 200 mg/kg orally), the “α-SMA in liver sections (immunostaining and fluorescence microscopy)” value is recorded as “effect similar to that of clodronate”; the “α-SMA-positive reaction by Western blotting of liver tissue, increase due to TAA” value is on record as “markedly suppressed”. For the same compound, in assay [1] (setting [2]), the “fibrosis score, increase by TAA” value is reported as “suppressed”; the “liver histology (HE staining)” value is “reduced destruction of the lobular structure, hepatocyte ballooning, and inflammatory cell infiltration”; the “positive reaction of F4/80-positive macrophages, increase by TAA” value is “strongly suppressed”; the “α-SMA-positive reaction (activation of hepatic stellate cells), increase by TAA” value was “strongly suppressed”. Also, the “PSR staining-positive area (collagen fibers)” value in assay [1] (imeglimin 200 mg/kg orally three times per week for 8 weeks, versus TAA group) was “significantly reduced”.
